Measurements reported in ChEMBL document CHEMBL1135459, “Novel class of potent 4-arylalkyl substituted 3-isoxazolol GABA(A) antagonists: synthesis, pharmacology, and molecular modeling” (J Med Chem, 2002).

Key:
[1] = target: Gamma-aminobutyric acid type B receptor subunit 1 (Rattus norvegicus, UniProt Q9Z0U4); experiment: Affinity for GABA-B receptor by inhibiting GABA uptake into rat brain synaptosomes; format: subcellular
[2] = target: GABA-A receptor; anion channel; experiment: Affinity for GABA-A receptor alpha by inhibiting binding of [3H]muscimol to rat brain synaptosomes; format: subcellular
Mus musculus [3] = species: Mus musculus; experiment: Electrophysiology using Whole-cell patch-clamp recordings in mouse embryos; format: functional, organism-based
Mus musculus [4] = experiment: Convulsant effect in mice after intracerebroventricular (icv) administration; format: functional; conditions: central
Mus musculus [5] = experiment: Convulsant effect in mice after subcutaneous (sc) administration; format: functional

Chain of Gamma-aminobutyric acid type B receptor subunit 1 (Q9Z0U4 whole entry): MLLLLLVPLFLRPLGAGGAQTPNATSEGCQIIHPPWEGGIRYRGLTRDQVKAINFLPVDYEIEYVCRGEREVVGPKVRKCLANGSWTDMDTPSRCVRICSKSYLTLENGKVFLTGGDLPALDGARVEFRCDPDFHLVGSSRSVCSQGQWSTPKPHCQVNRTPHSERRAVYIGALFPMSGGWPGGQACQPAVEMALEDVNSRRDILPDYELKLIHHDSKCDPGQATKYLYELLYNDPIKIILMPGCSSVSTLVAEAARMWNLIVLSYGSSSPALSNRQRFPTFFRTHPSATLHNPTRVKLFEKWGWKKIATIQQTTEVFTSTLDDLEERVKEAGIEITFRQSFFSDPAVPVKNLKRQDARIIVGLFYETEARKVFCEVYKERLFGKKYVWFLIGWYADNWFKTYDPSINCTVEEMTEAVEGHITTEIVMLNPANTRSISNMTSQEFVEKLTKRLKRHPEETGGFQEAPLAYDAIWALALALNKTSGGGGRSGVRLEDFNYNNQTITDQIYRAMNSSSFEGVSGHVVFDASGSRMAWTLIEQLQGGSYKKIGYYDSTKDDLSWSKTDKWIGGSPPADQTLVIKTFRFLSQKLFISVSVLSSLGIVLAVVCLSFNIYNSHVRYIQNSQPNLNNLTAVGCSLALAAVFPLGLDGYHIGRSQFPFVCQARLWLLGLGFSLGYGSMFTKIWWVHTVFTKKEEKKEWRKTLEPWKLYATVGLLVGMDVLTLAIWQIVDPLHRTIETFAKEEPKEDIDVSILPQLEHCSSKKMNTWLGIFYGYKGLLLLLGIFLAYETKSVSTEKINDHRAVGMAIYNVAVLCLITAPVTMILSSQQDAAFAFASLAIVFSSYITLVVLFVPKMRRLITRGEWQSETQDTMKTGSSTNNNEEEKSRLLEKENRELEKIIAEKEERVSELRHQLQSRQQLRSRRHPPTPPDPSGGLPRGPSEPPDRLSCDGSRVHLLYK

| IC50 [1] [µM] | Ki [2] [µM] | SMILES | IC50 (Mus musculus [3]) [µM] | ED50 (Mus musculus [4]) [µmol/kg] | ED50 (Mus musculus [5]) [µmol/kg] |
| --- | --- | --- | --- | --- | --- |
| > 100 | 1.1 | Oc1noc(C2CCNCC2)c1CCCc1ccccc1 | 0.53 |  |  |
| > 10 | 0.068 | Oc1noc(C2CCNCC2)c1CCC(c1ccccc1)c1ccccc1 | 0.02 | 0.21 | > 45 |
| > 10 | 0.1 | Oc1noc(C2CCNCC2)c1Cc1cccc2ccccc12 | 0.48 |  |  |
| > 100 | 4.9 | Oc1noc(C2CCNCC2)c1CC1CCCCC1 | 1.1 |  |  |
| > 10 |  | Oc1noc(C2CCNCC2)c1Cc1ccc2ccccc2c1 | 0.37 | 0.024 | > 51 |
| > 10 | 1.7 | Oc1noc(C2CCNCC2)c1CCc1cccc2ccccc12 | 1.5 |  |  |
| > 100 | 0.7 | Oc1noc(C2CCNCC2)c1CCCC(c1ccccc1)c1ccccc1 | 0.05 |  |  |

The remaining lines, values behind:

| SMILES | IC50 [1] [µM] | Ki [2] [µM] | IC50 (Mus musculus [3]) [µM] | ED50 (Mus musculus [4]) [µmol/kg] | ED50 (Mus musculus [5]) [µmol/kg] |
| --- | --- | --- | --- | --- | --- |
| CC1(c2cc(O)no2)CCNCC1 | > 100 | 37 |  |  |  |
| CCCc1c(O)noc1C1CCNCC1 | > 100 | 6.6 | 4.6 |  |  |
| Oc1noc(C2CCNCC2)c1CC(c1ccccc1)c1ccccc1 | > 100 | 0.36 | 0.81 |  |  |
| Cc1c(O)noc1C1CCNCC1 | > 100 |  | 26 |  |  |
| CCCCc1c(O)noc1C1CCNCC1 | > 100 |  | 3 |  |  |
| Oc1noc(C2CCNCC2)c1Cc1c2ccccc2cc2ccccc12 | > 10 |  | 1.3 |  |  |
| CCCCCCCCc1c(O)noc1C1CCNCC1 | > 100 | 1.8 | 0.44 |  |  |
| Oc1noc(C2CCNCC2)c1CCc1ccccc1 | > 10 | 5 | 4.1 |  |  |
| CCc1c(O)noc1C1CCNCC1 | > 100 |  | 10.3 |  |  |
| Oc1noc(C2CCNCC2)c1Cc1ccc(-c2ccccc2)cc1 | > 10 | 0.4 | 0.71 |  |  |
| Oc1noc(C2CCNCC2)c1C(c1ccccc1)c1ccccc1 | > 10 | 0.96 | 0.78 |  |  |
| Oc1noc(C2CCNCC2)c1CCc1ccc2ccccc2c1 | > 10 |  | 0.89 |  |  |
| CCCCCCc1c(O)noc1C1CCNCC1 | > 100 | 4.5 | 1.1 |  |  |
| Oc1noc(C2CCNCC2)c1Cc1ccccc1 | > 100 |  | 4 |  |  |
